Values quoted from earlier work as cited in publication PMC12652113, “Fluorescent Albumin-Binding N-Propylbenzene Indolenine-Based Squaraines as Potential Candidates for Prostate Cancer Photodynamic Therapy Photosensitizers” (International Journal of Molecular Sciences, 2025).

Details: in dimethylformamide; reference value used for the calculation; cited from earlier work

Structure (SMILES): [Zn+2].c1ccc2c(c1)-c1nc-2nc2[n-]c(nc3nc([n-]c4nc(n1)-c1ccccc1-4)-c1ccccc1-3)c1ccccc21 [Zinc phthalocyanine, zinc phthalocyanine]
- fluorescence quantum yield (ΦF) of the reference standard: 0.17
